Measurements: patent US9498479B2, “Dihydropyrimidine compounds and their application in pharmaceuticals” (SUNSHINE LAKE PHARMA CO., LTD., priority 2013, dated 2016)
Where two headings read alike, the source gives them in different places.

Assay: Test compounds' PK assay in ICR mice
Type: in vivo
Details: for AUC(0-t): AUC in 0-24 hours; for AUC(0-inf): AUC in 0 hour to infinite time; for Vd: read-out: Vss
Procedure: The test compounds were poured into ICR mice stomach through mouth with 10 mg/kg or 5 mg/kg, or administered 2 mg/kg to ICR mice by tail-intravenous injection. Blood sample of orbital vein was taken at 0.083, 0.25, 0.5, 1, 2, 4, 6, 8 and 24 hours after administration, and collected in anticoagulation tube added with EDTA-K2. The test compounds were extracted from plasma samples and chromatographed on a tandem mass spectrometer. Quantitation was performed using multiple reaction monitoring (MRM). Pharmacokinetic parameters were calculated using WinNonlin 6.3 software with non compartment model.

[1] = ICR mice, po 5 mg/kg vs iv 2 mg/kg, calculated by the AUClast
[2] = mouse, plasma, ICR mice, iv, 2 mg/kg
[3] = mouse, plasma, ICR mice, iv, 2 mg/kg, read-out: Cmax
[4] = mouse, plasma, ICR mice, iv, 2 mg/kg, read-out: Tmax
[5] = mouse, plasma, ICR mice, po, 5 mg/kg
[6] = mouse, plasma, ICR mice, po, 5 mg/kg, read-out: Cmax
[7] = mouse, plasma, ICR mice, po, 5 mg/kg, read-out: Tmax

Compound | F [1] [%] | absorption after intragastric administration (in words) (ICR mice, po, 5 mg/kg) | clearance [2] [mL/min/kg] | half-life [2] [min] | AUC(0-t) [2] [ng·h/mL] | AUC(0-inf) [2] [ng·h/mL] | Cmax [3] [ng/mL] | Tmax [4] [min] | Vd [2] [L/kg] | half-life [5] [min] | AUC(0-t) [5] [ng·h/mL] | AUC(0-inf) [5] [ng·h/mL] | Cmax [6] [ng/mL] | Tmax [7] [min] | other results
CCOC(=O)C1=C(CN2CC(F)(F)C[C@H]2CC(C)C(=O)O)NC(c2nccs2)=N[C@H]1c1ccc(F)cc1Br (stereo partly drawn) [Example 8, 3-((R)-1-(((R)-6-(2-bromo-4-fluorophenyl)-5-(ethoxycarbonyl)-2-(thiazol-2-yl)-3,6-dihydropyrimidin-4-yl)methyl)-4,4-difluoropyrrolidin-2-yl)-2-methylpropanoic acid] | 69.3 | rapidly absorbed | 11.5 | 81 | 2860 | 2870 | 5790 | 4.8 | 0.39 | 63 | 4960 | 4970 | 4820 | 15 | 
CCOC(=O)C1=C(CN2CC(F)(F)C[C@H]2C(C)CC(=O)O)NC(c2nccs2)=N[C@H]1c1ccc(F)cc1Br (stereo partly drawn) [Example 9, 3-((S)-1-(((R)-6-(2-bromo-4-fluorophenyl)-5-(ethoxycarbonyl)-2-(thiazol-2-yl)-3,6-dihydropyrimidin-4-yl)methyl)-4,4-difluoropyrrolidin-2-yl)butanoic acid] | 60.2 | rapidly absorbed | 10.3 | 82.2 | 3230 | 3240 | 6270 | 4.8 | 0.33 | 63.6 | 4860 | 4870 | 5460 | 15 | 
CCOC(=O)C1=C(CN2CCOCC2)NC(c2nccs2)=NC1c1ccc(F)cc1Br (stereo not drawn) [R, Ethyl4-(2-bromo-4-fluorophenyl)-2-(thiazol-2-yl)-6-((4-morpholino)methyl)-1,4-dihydropyrimidine-5-carboxylate, reference compound] |  |  |  |  |  |  |  |  |  |  |  |  |  |  | F (mouse, in vivo): 7.75%; AUCINF (mouse, in vivo, iv, 2 mg/kg): 381.2 ng·h/mL; AUClast (mouse, in vivo, iv, 2 mg/kg): 379.13 ng·h/mL; CL (mouse, in vivo, iv, 2 mg/kg): 87.5 mL/min/kg; Cmax (mouse, in vivo, iv, 2 mg/kg): 654.37 ng/mL; Tmax (mouse, in vivo, iv, 2 mg/kg): 4.98 min; Vss (mouse, in vivo, iv, 2 mg/kg): 7.91 L/kg; t1/2 (mouse, in vivo, iv, 2 mg/kg): 172 min; AUCINF (mouse, in vivo, po, 10 mg/kg): 147.71 ng·h/mL; AUClast (mouse, in vivo, po, 10 mg/kg): 145.05 ng·h/mL; Cmax (mouse, in vivo, po, 10 mg/kg): 78.2 ng/mL; Tmax (mouse, in vivo, po, 10 mg/kg): 15 min; t1/2 (mouse, in vivo, po, 10 mg/kg): 221 min

The next lines start with results.

F [1] [%] | absorption after intragastric administration (in words) (ICR mice, po, 5 mg/kg) | clearance [2] [mL/min/kg] | half-life [2] [min] | AUC(0-t) [2] [ng·h/mL] | AUC(0-inf) [2] [ng·h/mL] | Cmax [3] [ng/mL] | Tmax [4] [min] | Vd [2] [L/kg] | half-life [5] [min] | AUC(0-t) [5] [ng·h/mL] | AUC(0-inf) [5] [ng·h/mL] | Cmax [6] [ng/mL] | Tmax [7] [min] | Compound | other results
86.1 | rapidly absorbed | 5.67 | 193 | 5800 | 5810 | 4260 | 4.8 | 0.73 | 133 | 12500 | 12500 | 4900 | 30 | CCOC(=O)C1=C(CN2CC(F)C(C)(C)C2CCC(=O)O)NC(c2nccs2)=N[C@H]1c1ccc(F)cc1Br (stereo partly drawn) [Example 39, 3-(1-(((R)-6-(2-bromo-4-fluorophenyl)-5-(ethoxycarbonyl)-2-(thiazol-2-yl)-3,6-dihydropyrimidin-4-yl)methyl)-4-fluoro-3,3-dimethylpyrrolidin-2-yl)propanoic acid] | 
59.3 | rapidly absorbed | 10.2 | 46.2 | 3270 | 3270 | 6560 | 4.8 | 0.38 | 188 | 4840 | 4850 | 5410 | 15 | CCOC(=O)C1=C(CN2CC(F)(F)C[C@H]2CCC(=O)O)NC(c2nccs2)=N[C@H]1c1ccc(F)cc1Br [Example 6, 3-((R)-1-(((R)-6-(2-bromo-4-fluorophenyl)-5-(ethoxycarbonyl)-2-(thiazol-2-yl)-3,6-dihydropyrimidin-4-yl)methyl)-4,4-difluoropyrrolidin-2-yl)propanoic acid] | 
